Laboratory results: EP0618905B1, “IMIDAZOLYL-ALKYL-PIPERAZINE AND -DIAZEPINE DERIVATIVES AS HISTAMINE H3 AGONISTS/ANTAGONISTS” (SCHERING CORPORATION, priority 1991, dated 1993)

Tests used:
[1] = target: T1, H₃ receptors (Cavia porcellus, UniProt Q9JI35); assay: H3 Receptor Binding Assay; conditions: guinea pig brain membranes; for H3 Binding (inhibition of the specific binding of radioactive ligand): final concentration 2 µg/mL with 0.1% DMSO, not serially diluted (70% or less inhibition); for Ki: 3 nM [³H]R-α-methylhistamine or [³H]-N-methylhistamine, 30° for 30 min
T1 construct: The source of the H₃ receptors in this experiment was guinea pig brain; from tissue; host or cells: guinea pig brain membranes
T1 sequence (Q9JI35 whole entry): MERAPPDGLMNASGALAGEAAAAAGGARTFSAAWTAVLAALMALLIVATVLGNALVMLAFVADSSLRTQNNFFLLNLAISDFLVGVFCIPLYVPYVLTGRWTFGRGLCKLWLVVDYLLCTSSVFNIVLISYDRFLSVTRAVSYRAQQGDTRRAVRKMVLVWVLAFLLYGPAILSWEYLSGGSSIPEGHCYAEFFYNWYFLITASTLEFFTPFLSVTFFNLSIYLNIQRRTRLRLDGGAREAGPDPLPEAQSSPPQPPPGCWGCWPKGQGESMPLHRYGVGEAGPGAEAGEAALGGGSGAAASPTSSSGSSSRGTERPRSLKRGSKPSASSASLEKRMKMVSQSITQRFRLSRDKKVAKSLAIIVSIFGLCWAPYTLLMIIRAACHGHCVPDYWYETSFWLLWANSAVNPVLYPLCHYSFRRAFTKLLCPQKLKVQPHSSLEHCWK
Procedure: H₃ Receptor Binding Assay
The source of the H₃ receptors in this experiment was guinea pig brain. The animals used weighed 400-600 g. The tissue was homogenized using a Polytron in a solution of 50 mM Tris, pH 7.5. The final concentration of tissue in the homogenization buffer was 10% w/v. The homogenates were centrifuged at 1000 x g for 10 min. in order to remove clumps of tissue and debris. The resulting supernatants were then centrifuged at 50,000 x g for 20 min. in order to sediment the membranes, which were nest washed 3 times in homogenization buffer (50,000 x g for 20 min. each). The membranes were frozen and stored at -70°C until needed.
All compounds to be tested were dissolved in DMSO and then diluted into the binding buffer (50 mM Tris, pH 7.5) such that the final concentration was 2 µg/mL with 0.1% DMSO. Membranes were then added (400 µg of protein) to the reaction tubes. The reaction was started by the addition of 3 nM [³H]R-α-methylhistamine (8.8 Ci/mmol) or [³H]-N-methylhistamine (80 Ci/mmol) and incubated at 30° for 30 min. Bound ligand was separated from unbound ligand by filtration, and the amount of radioactive ligand bound to the membranes was quantitiated by liquid scintillation spectrometry.

[2] = target: H₃ receptors in rat brain (Rattus norvegicus, UniProt Q9QYN8); conditions: complete agonists of the H₃ receptors; cited from earlier work
Sequence of H₃ receptors in rat brain (Q9QYN8 whole entry): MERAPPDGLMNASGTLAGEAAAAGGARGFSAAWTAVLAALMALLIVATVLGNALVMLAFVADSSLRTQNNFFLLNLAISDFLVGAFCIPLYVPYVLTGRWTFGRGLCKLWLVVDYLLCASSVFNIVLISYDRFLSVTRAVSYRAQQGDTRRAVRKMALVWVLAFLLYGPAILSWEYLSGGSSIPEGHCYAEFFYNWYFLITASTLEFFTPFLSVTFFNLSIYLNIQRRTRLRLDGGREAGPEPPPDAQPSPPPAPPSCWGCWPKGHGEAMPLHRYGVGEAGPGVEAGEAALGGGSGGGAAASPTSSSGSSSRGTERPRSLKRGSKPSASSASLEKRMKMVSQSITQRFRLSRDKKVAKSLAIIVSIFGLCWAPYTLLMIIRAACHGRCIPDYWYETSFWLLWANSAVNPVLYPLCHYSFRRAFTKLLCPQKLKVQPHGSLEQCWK

Structure (SMILES)	H3 Binding (inhibition of the specific binding of radioactive ligand) [1]	Ki [1]	other results
CC1CN(Cc2c[nH]cn2)C(C)CN1 (stereo not drawn)	6%	–	–
C[C@@H]1CN(Cc2c[nH]cn2)C[C@H](C)N1	24%	–	–
NCCc1c[nH]cn1 [histamine]	–	–	maximal inhibition of release [2]: approximately 60%
c1nc(CN2CCNCC2)c[nH]1	–	4.7 nM	–
NCCc1c[nH]cn1 [(a*), reference compound]	–	14 nM	–
c1nc(CN2CCCNCC2)c[nH]1	–	87 nM	–
